Experimental data published in ChEMBL document CHEMBL3271999, “Antimycotic imidazoles. 2. Synthesis and antimycotic properties of 1-[2-(arylalkyl)-2-phenylethyl]-1H-imidazoles” (1977).
Activity calls are given as the source filed them. The calls are words filed in the database; no cut-off is given here.

Legend:
Candida albicans [1] = experiment: Antifungal activity against Candida albicans assessed as lowest dose level for total inhibition of fungal growth; assay type: functional
Mucor = experiment: Antifungal activity against Mucor species assessed as lowest dose level for total inhibition of fungal growth; assay type: functional
Aspergillus fumigatus = experiment: Antifungal activity against Aspergillus fumigatus assessed as lowest dose level for total inhibition of fungal growth; assay type: functional
Sporothrix schenckii = experiment: Antifungal activity against Sporothrix schenckii assessed as lowest dose level for total inhibition of fungal growth; assay type: functional
Saprolegnia = experiment: Antifungal activity against Saprolegnia species assessed as lowest dose level for total inhibition of fungal growth; assay type: functional
Phialophora verrucosa = experiment: Antifungal activity against Phialophora verrucosa assessed as lowest dose level for total inhibition of fungal growth; assay type: functional
[2] = system: Erysipelothrix rhusiopathiae; experiment: Antibacterial activity against Erysipelothrix insidiosa assessed as lowest dose level for total inhibition of bacterial growth; assay type: functional
[3] = system: Staphylococcus haemolyticus; experiment: Antibacterial activity against Staphylococcus haemolyticus assessed as lowest dose level for total inhibition of bacterial growth; assay type: functional
Streptococcus pyogenes = experiment: Antibacterial activity against Streptococcus pyogenes assessed as lowest dose level for total inhibition of bacterial growth; assay type: functional
Candida albicans [4] = experiment: In vivo antifungal activity against Candida albicans topically infected in guinea pig assessed as animal cured at 10 mg/kg, po; assay type: functional, organism-based; parameters: dose 10 mg/kg
Microsporum canis = experiment: Antifungal activity against Microsporum canis assessed as lowest dose level for total inhibition of fungal growth; assay type: functional
[5] = system: Trichophyton mentagrophytes; experiment: Antifungal activity against Trichophyton mentagrophytes assessed as lowest dose level for total inhibition of fungal growth; assay type: functional
Trichophyton rubrum = experiment: Antifungal activity against Trichophyton rubrum assessed as lowest dose level for total inhibition of fungal growth; assay type: functional
Cryptococcus neoformans = experiment: Antifungal activity against Cryptococcus neoformans assessed as lowest dose level for total inhibition of fungal growth; assay type: functional
Candida tropicalis = experiment: Antifungal activity against Candida tropicalis assessed as lowest dose level for total inhibition of fungal growth; assay type: functional

Row | Compound | Activity (Candida albicans [1]) | Activity (Mucor) | Activity (Aspergillus fumigatus) | Activity (Sporothrix schenckii) | Activity (Saprolegnia) | Activity (Phialophora verrucosa) | Activity [2] | Activity [3] | Activity (Streptococcus pyogenes) | Activity (Candida albicans [4]) | Activity (Microsporum canis) | Activity [5] | Activity (Trichophyton rubrum) | Activity (Cryptococcus neoformans) | Activity (Candida tropicalis)
1 | Clc1ccc(CC(Cn2ccnc2)c2ccccc2Cl)cc1.O=[N+]([O-])O (stereo not given) | 10 µg/mL | 100 µg/mL | 100 µg/mL | 10 µg/mL | 100 µg/mL | 100 µg/mL | 1 µg/mL | 100 µg/mL | 1 µg/mL | Active | 10 µg/mL | <1 µg/mL | <1 µg/mL | <1 µg/mL | >100 µg/mL
2 | Clc1ccc(CC(Cn2ccnc2)c2ccccc2Cl)c(Cl)c1.O=[N+]([O-])O (stereo not given) | 100 µg/mL | 100 µg/mL | 100 µg/mL | 10 µg/mL | 100 µg/mL | 100 µg/mL | 10 µg/mL | 100 µg/mL | <1 µg/mL | inactive | 10 µg/mL | <1 µg/mL | <1 µg/mL | <1 µg/mL | >100 µg/mL
3 | Clc1ccc(C(CCc2ccccc2)Cn2ccnc2)c(Cl)c1.O=[N+]([O-])O (stereo not given) | 100 µg/mL | 100 µg/mL | 100 µg/mL | 10 µg/mL | 10 µg/mL | 10 µg/mL | <1 µg/mL | 1 µg/mL | <1 µg/mL | inactive | 10 µg/mL | <1 µg/mL | <1 µg/mL | <1 µg/mL | >100 µg/mL
4 | COc1ccc(CC(Cn2ccnc2)c2ccc(Cl)cc2Cl)cc1.O=[N+]([O-])O (stereo not given) | 10 µg/mL | 10 µg/mL | 100 µg/mL | 10 µg/mL | 100 µg/mL | 10 µg/mL | 1 µg/mL | 10 µg/mL | 1 µg/mL | inactive | 100 µg/mL | <1 µg/mL | <1 µg/mL | <1 µg/mL | 10 µg/mL
5 | Clc1ccc(CCC(Cn2ccnc2)c2ccc(Cl)cc2Cl)c(Cl)c1.O=[N+]([O-])O (stereo not given) | >100 µg/mL | >100 µg/mL | 100 µg/mL | 10 µg/mL | 100 µg/mL | >100 µg/mL | <1 µg/mL | 100 µg/mL | <1 µg/mL | inactive | 10 µg/mL | <1 µg/mL | <1 µg/mL | <1 µg/mL | >100 µg/mL
6 | Clc1ccc(CCC(Cn2ccnc2)c2ccc(Cl)cc2Cl)cc1.O=[N+]([O-])O (stereo not given) | 10 µg/mL | 100 µg/mL | 100 µg/mL | <1 µg/mL | 10 µg/mL | 10 µg/mL | <1 µg/mL | 1 µg/mL | <1 µg/mL | inactive | 10 µg/mL | <1 µg/mL | <1 µg/mL | <1 µg/mL | 10 µg/mL
7 | Clc1ccccc1CC(Cn1ccnc1)c1ccccc1Cl.O=[N+]([O-])O (stereo not given) | 100 µg/mL | 100 µg/mL | 10 µg/mL | 10 µg/mL | 100 µg/mL | 100 µg/mL | 1 µg/mL | 100 µg/mL | <1 µg/mL | inactive | 10 µg/mL | <1 µg/mL | <1 µg/mL | <1 µg/mL | >100 µg/mL
8 | Clc1ccc(CC(Cn2ccnc2)c2ccc(Cl)cc2Cl)c(Cl)c1.O=[N+]([O-])O (stereo not given) | 10 µg/mL | 100 µg/mL | 100 µg/mL | <1 µg/mL | 100 µg/mL | 100 µg/mL | <1 µg/mL | 10 µg/mL | <1 µg/mL | inactive | 10 µg/mL | <1 µg/mL | <1 µg/mL | <1 µg/mL | 10 µg/mL
9 | Clc1ccc(C(Cc2ccccc2Cl)Cn2ccnc2)cc1.O=[N+]([O-])O (stereo not given) | 100 µg/mL | 10 µg/mL | 100 µg/mL | 100 µg/mL | 100 µg/mL | 100 µg/mL | 1 µg/mL | 10 µg/mL | 10 µg/mL | inactive | 10 µg/mL | <1 µg/mL | <1 µg/mL | <1 µg/mL | 100 µg/mL
10 | Clc1ccc(CC(Cn2ccnc2)c2c(Cl)cccc2Cl)c(Cl)c1.O=[N+]([O-])O (stereo not given) | >100 µg/mL | 100 µg/mL | 100 µg/mL | 10 µg/mL | 100 µg/mL | >100 µg/mL | 1 µg/mL | 10 µg/mL | <1 µg/mL | inactive | 10 µg/mL | 10 µg/mL | <1 µg/mL | 10 µg/mL | >100 µg/mL
11 | Clc1ccc(CC(Cn2ccnc2)c2ccccc2Br)c(Cl)c1.O=[N+]([O-])O (stereo not given) | 10 µg/mL | 10 µg/mL | 10 µg/mL | 10 µg/mL | 100 µg/mL | 100 µg/mL | <1 µg/mL | <1 µg/mL | 10 µg/mL | inactive | 10 µg/mL | <1 µg/mL | <1 µg/mL | <1 µg/mL | 100 µg/mL
12 | COc1ccc(CCC(Cn2ccnc2)c2ccc(Cl)cc2Cl)cc1.O=[N+]([O-])O (stereo not given) | >100 µg/mL | 100 µg/mL | 100 µg/mL | 10 µg/mL | 10 µg/mL | 10 µg/mL | <1 µg/mL | 1 µg/mL | <1 µg/mL | inactive | 10 µg/mL | <1 µg/mL | <1 µg/mL | <1 µg/mL | >100 µg/mL
